Earlier results in US20060106003A1, “Combination of a macrolide t-cell immunomodulator and a calciferol for the treatment of skin diseases or of inflammatory bowel disease” (priority 2003, published 2006).

Test system: allogeneic kidney transplantation
Conditions: rat, oral administration; suppression of systemic immune response

## C=CC[C@@H]1/C=C(\C)C[C@H](C)C[C@H](OC)[C@H]2O[C@@](O)(C(=O)C(=O)N3CCCC[C@H]3C(=O)O[C@H](/C(C)=C/[C@@H]3CC[C@@H](O)[C@H](OC)C3)[C@H](C)[C@@H](O)CC1=O)[C@H](C)C[C@@H]2OC [tacrolimus]
  minimum effective dose (MED): 14 mg/kg
